A word on the microsomal CLint: it is the rate of metabolic loss divided by the concentration. The low end stands for slow turnover, the high end for rapid turnover.

Molecules are shown by their SMILES. A value given as a limit tells only on which side of the number the result lay.

One compound from publication PMC10755728, “Inhibitors of the Elastase LasB for the Treatment of Pseudomonas aeruginosa Lung Infections” (ACS Central Science, 2023) can be followed below.

One series relates to LasB. Format: in vivo, mouse. The conditions noted are these: compared to the vehicle group; 4b 10 mg/kg TID, levofloxacin 25 mg/kg.
The test system of series [1] is Galleria mellonella larvae infected with wt PA14. In words: G. mellonella infection model.
The next series deals with 3D lung organoids. Kind of series: Lung organoid assay. Format: cell-based, human.
Series [2] is described as follows: Microsomal stability, minipig liver microsomes. The format is in vitro ADME. The conditions noted are these: Göttingen, pooled liver microsomes. On the technique in general: Liver microsomes are vesicles of endoplasmic reticulum, rich in cytochrome P450 enzymes.
The nature of another series: Plasma stability, rat. The format is in vitro ADME. The conditions noted are these: Wistar, pooled plasma, species profiling, read-out: Plasma T1/2 Rat (Wistar).
The nature of the next series: Plasma stability, mouse. The format is in vitro ADME.
Series [3] in a line: Microsomal stability, mouse liver microsomes. Format: in vitro ADME. The conditions noted are these: C57BL6, mouse, pooled liver microsomes.
A short description of series [4]: Metabolic stability in human liver S9 fraction. Format: in vitro ADME.

`CC(C)CC(C(=O)Nc1ccc(C(F)(F)F)cc1)P(=O)(O)O` (centres unmarked) [Compound 4b]: the “LasB protein levels in blood” value with LasB is “strong reduction”. For the same compound, the “survival of larvae infected with wt PA14” value in series [1] (1 nmol 4b, 10.7 nmol tobramycin, or both, 17% in the wild type) was found to be 33%. In series [1] (PBS with 4b, tobramycin or combination of both), the “survival in the PBS treated groups (not infected)” value turned out to be 100%. Moreover, the “viability of lung organoids challenged with 5% PA14 csn” value in the series with 3D lung organoids (5% PA14 csn, 48 h, MTT) is recorded as “improved in a dose-dependent manner”. Besides, the “toxic effects on nontreated lung organoids” value with 3D lung organoids (concentrations tested up to 100 μM) is given as “did not have significant toxic effects”. The microsomal CLint in series [2] and in series [3] was less than 11.6 µL/min/mg throughout. Further, the half-life is greater than 4 h in the series “Plasma stability, rat” and greater than 4 h in the series “Plasma stability, mouse” (C57BL6, mouse, pooled plasma, species profiling, read-out: Plasma T1/2 Mouse (C57BL6)). Moreover, in the series “Plasma stability, mouse” (mouse plasma, read-out: Plasma T1/2 Mouse), the half-life at 1 μM is greater than 2.5 h. The compound further registered a microsomal CLint at 1 μM in series [4] of less than 5.8 µL/min/mg.
